Assay results as given in publication PMC13227277, “Targeting CIRP and IL-6R-mediated microglial inflammation to improve outcomes in intracerebral hemorrhage” (Journal of Advanced Research, 2025).
Read-outs that look alike come from different tables or passages of the source. No end group written: not given here.

Assays:
microglia [1] = assay: CCK-8 microglial viability; format: cell-based, mouse
Source text: (§1) Primary cortical neurons were isolated from embryonic day 16–18 (E16–E18) C57BL/6 mouse embryos as previously described, and cultured in Neurobasal medium supplemented with B27 and GlutaMAX (Gibco).Primary microglial cells were isolated from the cortices of neonatal (day 1) C57BL/6J mice. After disinfection with 75 % ethanol, the skin and skull were removed, and the brains were placed in ice-cold HBSS. The meninges were peeled off, the cortex was collected, and the hippocampus was discarded. Tissues were digested with 0.25 % trypsin at 37 °C for 12 min, centrifuged at 1200 rpm for 5 min, and resuspended in complete medium. The suspension was transferred to a T75 flask with 15 mL of complete medium. After 14 days, microglial cells were harvested by shaking the flask at 270–280 rpm for 30 min, and the supernatant was collected. To induce phenotyping, microglial cells were treated with LPS (100 ng/mL) and IFN-γ (20 ng/mL) for 48 h to induce the M1 phenotype, or IL-4 (20 ng/mL) for 48 h to induce the M2 phenotype. […]
Microglia were exposed to 1, 10 100 μM concentrations of TCC or TC and PBS respectively for 24 h, and cell viability was measured. […] Cell viability was assessed using the Cell Counting Kit-8 (C0038, Beyotime) according to the manufacturer’s protocol. Absorbance at 450 nm was measured to determine cell viability.

[2] = in the brain following ICH, increased BBB permeability
microglia [3] = assay: IL-6 release from CIRP-stimulated microglia, ELISA (TCC vs TC); format: cell-based, mouse; conditions: peptides 10 μM pre-treated 0.5 h, then rmCIRP 1 μg/mL 24 h, n = 3
Procedure: To validate the effects of TCC and TC in vitro, microglial cells were pre-treated with the peptides (10 μM) for 0.5 h, followed by stimulation with recombinant mouse CIRP (rmCIRP, 1 μg/mL) for 24 h to establish an inflammation model.
ELISA was used to quantify CIRP, MD2, IL-6, and TNF-α concentrations in blood and cerebrospinal fluid samples. Samples were processed and stored under standardized conditions to preserve protein integrity. Each target protein was measured using commercial ELISA kits, following the manufacturer’s instructions: Mouse CIRBP ELISA Kit (CSB-EL005440MO, CUSABIO), Mouse TNF-α ELISA Kit (EK282, Lianke Bio), Mouse IL-6 ELISA Kit (CSB-E04639m, CUSABIO), and Rat TNF-α ELISA Kit (EK382, Lianke Bio).
After disinfection with 75 % ethanol, the skin and skull were removed, and the brains were placed in ice-cold HBSS. The meninges were peeled off, the cortex was collected, and the hippocampus was discarded. Tissues were digested with 0.25 % trypsin at 37 °C for 12 min, centrifuged at 1200 rpm for 5 min, and resuspended in complete medium. The suspension was transferred to a T75 flask with 15 mL of complete medium. After 14 days, microglial cells were harvested by shaking the flask at 270–280 rpm for 30 min, and the supernatant was collected. […] CIRP (1 μg/mL for 24 h) was added to the microglia, which were divided into PBS, CIRP, and CIRP + TCC groups. […]

[4] = target: T1, recombinant human IL-6 receptor alpha (IL-6Rα) (human, UniProt P08887 20-365); assay: SPR; human IL-6Rα immobilised on a CM5 chip; human CIRBP or TCC as analyte; conditions: both partners purified
T1 construct: Interleukin-6 receptor subunit alpha, human; UniProtKB P08887 is printed for the docking; also called rhIL-6Rα; rhIL-6R; source: recombinant
T1 sequence (looked up): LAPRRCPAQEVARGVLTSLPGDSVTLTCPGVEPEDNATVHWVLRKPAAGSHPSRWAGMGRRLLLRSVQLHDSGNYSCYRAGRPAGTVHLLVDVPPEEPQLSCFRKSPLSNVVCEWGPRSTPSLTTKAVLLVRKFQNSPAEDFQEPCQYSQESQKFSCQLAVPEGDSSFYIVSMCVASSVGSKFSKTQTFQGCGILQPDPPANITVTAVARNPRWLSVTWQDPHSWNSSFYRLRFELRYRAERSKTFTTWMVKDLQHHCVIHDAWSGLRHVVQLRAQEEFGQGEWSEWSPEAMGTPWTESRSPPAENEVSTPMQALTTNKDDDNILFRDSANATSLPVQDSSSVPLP

microglia [5] = assay: Microglial phagocytosis of CFSE-labeled RBCs; format: cell-based, mouse; conditions: rmCIRP 24 h, then CFSE-labeled erythrocytes
Source text: as §1, with “collected.” for “collected. To induce phenotyping, microglial cells were treated with LPS (100 ng/mL) and IFN-γ (20 ng/mL) for 48 h to induce the M1 phenotype, or IL-4 (20 ng/mL) for 48 h to induce the M2 phenotype.”
The functional characteristics of microglial cells encompass not only the release of inflammatory cytokines but also their phagocytic activity. […] RBCs were labeled with either 0.5 μM or 5 μM CFSE, and immunofluorescence analysis determined that 5 μM CFSE was the optimal concentration for labeling (Fig. 7G). […]
RBCs were isolated via density gradient centrifugation and labeled with CFSE before being stereotactically injected into the right striatum. […] Cell viability was assessed using a Fixable Viability Dye, and flow cytometric analysis was subsequently performed. […]

## YGRKKRRQRRRGRGFSRGGGDRGYGGKFERQKILDQRFFE [TCC]
Microglia [1]; 10 μM, 24 h, CCK-8, n = 3
  microglial viability: did not affect microglial viability
[2]
  ability to cross the BBB: effectively traverse the BBB

## YGRKKRRQRRRRFESRSGGYGGSRD [TC]
Microglia [1]
  microglial viability: did not affect microglial viability
Microglia [3]
  IL-6 release in culture supernatants: reduced IL-6 release

B1: Tat-CIRP-CMA peptide (peptide)
peptide: YGRKKRRQRRRGRGFSRGGGDRGYGGKFERQKILDQRFFE
notes: also called TCC; source: synthetic peptide (Heifei KS-V Peptide Biotechnology, China)
[4]
  Kd: 4.12 nM

B2: rmCIRP: recombinant mouse CIRP (rmCIRP, 1 μg/mL) (protein, UniProt P60824 1-172, looked up)
Cold-inducible RNA-binding …: MASDEGKLFVGGLSFDTNEQALEQVFSKYGQISEVVVVKDRETQRSRGFGFVTFENIDDAKDAMMAMNGKSVDGRQIRVDQAGKSSDNRSRGYRGGSAGGRGFFRGGRSRGRGFSRGGGDRGYGGGRFESRSGGYGGSRDYYASRSQGGSYGYRSSGGSYRDSYDSYATHNE
Microglia [5]
  phagocytosis of RBCs, Cirbp^−/− vs WT microglia: greater capacity to phagocytize CFSE-labeled erythrocytes compared to WT microglia
